“And” between values parts separate entries of the source, which are not always exact repeats. Identical values can stand only once.
Experiments:
rat brain TSPO = rat brain TSPO (Rattus norvegicus, UniProt P16257); type: binding; conditions: for LipE: pKi (rat) minus clogD
human leukocyte LAB TSPO = human leukocyte LAB TSPO (Homo sapiens, UniProt P30536); test: Ligand binding affinity to human leukocyte LAB TSPO
[1] = tested on: human leukocyte HAB and LAB TSPO; test: Human TSPO genotype sensitivity, Ki in LAB versus HAB leukocytes; type: binding; conditions: for genotype sensitivity in words: LAB versus HAB TSPO; for (LAB Ki)/(HAB Ki): genotype sensitivity, ratio of Ki
human leukocyte HAB TSPO = human leukocyte HAB TSPO (Homo sapiens, UniProt P30536, T147A); test: Ligand binding affinity to human leukocyte HAB TSPO
TSPO in rat brain cortex = conditions: read-out: IC50, inhibition of [3H]1; cited from earlier work

human leukocyte LAB TSPO, sequence (P30536 whole entry): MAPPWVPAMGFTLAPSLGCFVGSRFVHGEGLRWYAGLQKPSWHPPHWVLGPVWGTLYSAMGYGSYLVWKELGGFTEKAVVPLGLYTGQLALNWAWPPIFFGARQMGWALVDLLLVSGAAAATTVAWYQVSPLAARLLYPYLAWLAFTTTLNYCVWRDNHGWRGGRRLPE
human leukocyte HAB TSPO, sequence (P30536 whole entry T147A): as the sequence (P30536 whole entry) above, with T147A counted along it
rat brain TSPO, sequence (P16257 whole entry): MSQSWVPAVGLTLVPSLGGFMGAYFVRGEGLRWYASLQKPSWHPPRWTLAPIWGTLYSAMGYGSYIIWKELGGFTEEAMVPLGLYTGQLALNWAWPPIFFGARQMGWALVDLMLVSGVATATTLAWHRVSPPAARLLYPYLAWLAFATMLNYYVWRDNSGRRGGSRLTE

SMILES | Ki (rat brain TSPO) [nM] | LipE (rat brain TSPO) | Ki (human leukocyte LAB TSPO) [nM] | (LAB Ki)/(HAB Ki) [1] | Ki (human leukocyte HAB TSPO) [nM] | further results
CC(Oc1cc(-c2ccncc2)nc2ccccc12)C(=O)N(C)c1ccccc1 (stereo not shown) [22c, N-methyl-N-phenyl-2-{[2-(pyridin-4-yl)quinolin-4-yl]oxy}propanamide] | 0.22 ± 0.02 | 5.60 ± 0.04 | 7 ± 3 | 7 ± 5 | 1 ± 0.5 | genotype sensitivity in words [1]: much less sensitive
CC(Cc1cc(-c2ccccc2)nc2ccccc12)C(=O)N(C)c1ccccc1 (stereo not shown) [10m, N,2-dimethyl-N-phenyl-3-(2-phenylquinolin-4-yl)propanamide] | 0.9 ± 0.2 | 3.5 ± 0.1 | 53 ± 22 | 27 ± 14 | 1.9 ± 0.5 | 
CC(Cc1cc(-c2ccccc2)nc2ccccc12)C(=O)N(C)Cc1ccccc1 (stereo not shown) [10n, N-benzyl-N,2-dimethyl-3-(2-phenylquinolin-4-yl)propanamide] | 5 ± 3 | 1.8 ± 0.2 |  |  |  | 
CC(Cc1cc(-c2ccccc2)nc2ccccc12)C(=O)N(C)C (stereo not shown) [10e, N,N,2-trimethyl-3-(2-phenylquinolin-4-yl)propanamide] | 40 ± 8 | 2.8 ± 0.1 |  |  |  | 
CCN(CC)C(=O)C(C)Cc1cc(-c2ccccc2)nc2ccccc12 (stereo not shown) [10a, N,N-Diethyl-2-methyl-3-(2-phenylquinolin-4-yl)propanamide] | 2.1 ± 0.6 | 4.4 ± 0.1 |  |  |  | IC50 (TSPO in rat brain cortex): 13.7 nM
CC(Cc1cc(-c2ccccc2)nc2ccccc12)C(=O)N(C)c1ccc(F)cc1 (stereo not shown) [10t, N-(4-fluorophenyl)-N,2-dimethyl-3-(2-phenylquinolin-4-yl)propanamide] | 0.4 ± 0.1 | 4.1 ± 0.2 |  |  |  | 
CC(Cc1cc(-c2cccc(Cl)c2)nc2ccccc12)C(=O)N(C)C(C)C (stereo not shown) [10v, 3-[2-(3-chlorophenyl)quinolin-4-yl)-N,2-dimethyl-N-(propan-2-yl)propanamide] | 4 ± 1 | 3.7 ± 0.1 |  |  |  | 
CN1CCC(Cc2cc(-c3ccccc3)nc3ccccc23)C1=O (stereo not shown) [10d, 1-methyl-3-[(2-phenylquinolin-4-yl)methyl]pyrrolidin-2-one] | 53 ± 22 | 3.6 ± 0.2 |  |  |  | 
CCN(CC)C(=O)CCc1cc(-c2ccccc2)nc2ccccc12 [10b, N,N-diethyl-3-(2-phenylquinolin-4-yl)propanamide] | 32 ± 11 | 2.7 ± 0.2 |  |  |  | 
CC(Cc1cc(-c2ccccc2)nc2ccccc12)C(=O)N(C)c1cccnc1 (stereo not shown) [10p, N,2-dimethyl-3-(2-phenylquinolin-4-yl)-N-(pyridin-3-yl)propanamide] | 10 ± 3 | 2.7 ± 0.1 |  |  |  | 
CCCCCN(C)C(=O)C(C)Cc1cc(-c2ccccc2)nc2ccccc12 (stereo not shown) [10i, N,2-dimethyl-N-pentyl-3-(2-phenylquinolin-4-yl)propanamide] | 0.6 ± 0.1 | 2.6 ± 0.1 |  |  |  | 
CC(Cc1cc(-c2ccccc2Cl)nc2ccccc12)C(=O)N(C)C(C)C (stereo not shown) [10u, 3-[2-(2-chlorophenyl)quinolin-4-yl)-N,2-dimethyl-N-(propan-2-yl)propanamide] | 22 ± 6 | 3.2 ± 0.1 |  |  |  | 
CC(Cc1cc(-c2ccccc2)nc2ccccc12)C(=O)N(C)C(C)C (stereo not shown) [10j, N,2-dimethyl-3-(2-phenylquinolin-4-yl)-N-(propan-2-yl)propanamide] | 2.9 ± 0.9 | 4.3 ± 0.1 | 973 ± 409 | 64 ± 28 | 15 ± 2 | 
CCN(CC)C(=O)[C@H](C)Cc1cc(-c2ccccc2)nc2ccccc12 [(R)-10a, (R)-N,N-Diethyl-2-methyl-3-(2-phenylquinolin-4-yl)propanamide] | 0.9 ± 0.09 | 4.72 ± 0.04 | 743 ± 190 | 76 ± 27 | 10 ± 2 | fold lower affinity for LAB TSPO than for HAB TSPO [1]: about 76 -fold; fold lower affinity to HAB TSPO than to rat TSPO (human leukocyte HAB TSPO): about 10 -fold
CC(Cc1cc(-c2ccc(Cl)cc2)nc2ccccc12)C(=O)N(C)C(C)C (stereo not shown) [10w, 3-[2-(4-chlorophenyl)quinolin-4-yl)-N,2-dimethyl-N-(propan-2-yl)propanamide] | 4 ± 1 | 3.6 ± 0.1 |  |  |  | 
CCN(CC)C(=O)[C@@H](C)Cc1cc(-c2ccccc2)nc2ccccc12 [(S)-10a, (S)-N,N-Diethyl-2-methyl-3-(2-phenylquinolin-4-yl)propanamide] | 73 ± 36 | 2.9 ± 0.1 |  |  |  | 
CC(Sc1cc(-c2ccccc2)nc2ccccc12)C(=O)N(C)c1ccccc1 (stereo not shown) [compound 12, N-Methyl-N-phenyl-2-[(2-phenylquinolin-4-yl)sulfanyl]propanamide] | 0.39 ± 0.04 | 4.10 ± 0.05 | 26 ± 5 | 10 ± 3 | 2.5 ± 0.6 | 

SMILES | Ki (rat brain TSPO) [nM] | LipE (rat brain TSPO) | Ki (human leukocyte LAB TSPO) [nM] | (LAB Ki)/(HAB Ki) [1] | Ki (human leukocyte HAB TSPO) [nM] | further results
CC(Cc1cc(-c2ccccc2)nc2ccccc12)C(=O)N(C)c1cccc(F)c1 (stereo not shown) [10s, N-(3-fluorophenyl)-N,2-dimethyl-3-(2-phenylquinolin-4-yl)propanamide] | 0.8 ± 0.2 | 3.5 ± 0.1 |  |  |  | 
CC(Oc1cc(-c2ccccn2)nc2ccccc12)C(=O)N(C)c1ccccc1 (stereo not shown) [22a, N-Methyl-N-phenyl-2-{[2-(pyridin-2-yl)quinolin-4-yl]oxy}propanamide] | 0.1 ± 0.05 | 5.9 ± 0.2 | 1.4 ± 0.5 | 1.0 ± 0.4 | 1.4 ± 0.2 | genotype sensitivity in words [1]: insensitive; Ki ([1]; read-out: human TSPO genotypes Ki, abstract, one value for the human genotypes): 1.4 nM
CC(Cc1cc(-c2ccccc2)nc2ccccc12)C(=O)N(C)c1ccncc1 (stereo not shown) [10q, N,2-dimethyl-3-(2-phenylquinolin-4-yl)-N-(pyridin-4-yl)propanamide] | 106 ± 24 | 1.7 ± 0.1 |  |  |  | 
CCC(C)N(C)C(=O)c1cc2ccccc2c(-c2ccccc2Cl)n1 (stereo not shown) [compound 1, 1-(2-chlorophenyl)-N-methyl-N-(1-methylpropyl)-3-isoquinolinecarboxamide, reference compound] |  |  |  |  |  | genotype sensitivity in words [1]: low genotype sensitivity
CC(Cc1cc(-c2ccccc2)nc2ccccc12)C(=O)N(C)c1ccccc1F (stereo not shown) [10r, N-(2-fluorophenyl)-N,2-dimethyl-3-(2-phenylquinolin-4-yl)propanamide] | 0.9 ± 0.2 | 3.5 ± 0.1 |  |  |  | 
CC(Nc1cc(-c2ccccc2)nc2ccccc12)C(=O)N(C)c1ccccc1 (stereo not shown) [compound 14, N-Methyl-N-phenyl-2-[(2-phenylquinolin-4-yl)amino]propanamide] | 0.19 ± 0.01 | 5.62 ± 0.03 | 4 ± 1 | 9 ± 3 | 0.44 ± 0.08 | 
CC(Oc1cc(-c2ccccc2)nc2ccccc12)C(=O)N(C)c1ccccc1 (stereo not shown) [15a, N-Methyl-N-phenyl-2-[(2-phenylquinolin-4-yl)oxy]propanamide] | 0.07 ± 0.004 | 5.42 ± 0.03 | 1.3 ± 0.2 | 2.5 and 2.5 ± 0.9 | 0.5 ± 0.2 | 
CCCCN(C)C(=O)C(C)Cc1cc(-c2ccccc2)nc2ccccc12 (stereo not shown) [10h, N-butyl-N,2-dimethyl-3-(2-phenylquinolin-4-yl)propanamide] | 0.4 ± 0.2 | 3.9 ± 0.2 | 89 ± 3 | 89 ± 50 | 1 ± 0.6 | 
CCCN(C)C(=O)C(C)Cc1cc(-c2ccccc2)nc2ccccc12 (stereo not shown) [10g, N,2-dimethyl-3-(2-phenylquinolin-4-yl)-N-propylpropanamide] | 1.2 ± 0.4 | 4.2 ± 0.1 |  |  |  | 
CCN(C)C(=O)C(C)Cc1cc(-c2ccccc2)nc2ccccc12 (stereo not shown) [10f, N-ethyl-N,2-dimethyl-3-(2-phenylquinolin-4-yl)propanamide] | 9 ± 2 | 3.8 ± 0.1 |  |  |  | 
CC(Oc1ccnc(-c2ccccc2)c1)C(=O)N(C)c1ccccc1 (stereo not shown) [15c, N-methyl-N-phenyl-2-[(2-phenylpyridin-4-yl)oxy]propanamide] | 3.3 ± 0.6 | 5.3 ± 0.3 | 62 ± 11 | 31 ± 11 | 2 ± 0.6 | rat TSPO affinity in words (rat brain TSPO): low nanomolar range; HAB binding affinity in words (human leukocyte HAB TSPO): low nanomolar
CCC(Cc1cc(-c2ccccc2)nc2ccccc12)C(=O)N(CC)CC (stereo not shown) [10c, N,N-diethyl-2-[(2-phenylquinolin-4-yl)methyl]butanamide] | 14 ± 6 | 2.6 ± 0.2 |  |  |  | 
CC(C)CN(C)C(=O)C(C)Cc1cc(-c2ccccc2)nc2ccccc12 (stereo not shown) [10l, N,2-dimethyl-N-(2-methylpropyl)-3-(2-phenylquinolin-4-yl)propanamide] | 5 ± 2 | 3.3 ± 0.1 | 185 ± 81 | 32 ± 18 | 6 ± 2 | 
CC(Cc1cc(-c2ccccc2)nc2ccccc12)C(=O)N(C)c1ccccn1 (stereo not shown) [10o, N,2-dimethyl-3-(2-phenylquinolin-4-yl)-N-(pyridin-2-yl)propanamide] | 1.6 ± 0.6 | 3.6 ± 0.2 | 119 ± 56 | 30 ± 18 | 4 ± 1 | 
CC(Oc1cc(-c2cccnc2)nc2ccccc12)C(=O)N(C)c1ccccc1 (stereo not shown) [22b, N-methyl-N-phenyl-2-{[2-(pyridin-3-yl)quinolin-4-yl]oxy}propanamide] | 0.2 ± 0.03 | 5.6 ± 0.1 | 12 ± 3 | 13 ± 4 | 0.9 ± 0.09 | rat TSPO affinity in words (rat brain TSPO): subnanomolar
CC(Oc1ccnc2ccccc12)C(=O)N(C)c1ccccc1 (stereo not shown) [15b, N-methyl-N-phenyl-2-(quinolin-4-yloxy)propanamide] | 5.7 ± 0.5 | 5.29 ± 0.04 | 66 ± 22 | 20 ± 9 | 3.3 ± 0.9 | rat TSPO affinity in words (rat brain TSPO): low nanomolar range; HAB binding affinity in words (human leukocyte HAB TSPO): low nanomolar

— publication PMC4216211 (Journal of Medicinal Chemistry, 2014)
